Key:
rats = settings: cited from earlier work
mu opioid receptor (MOR) = settings: depending on the route of administration and the assay measuring analgesia; cited from earlier work
[1] = cited from earlier work
acute pain model in rats = assay: Analgesic effect (% MPE) after subarachnoid (i.t.) administration in an acute pain model in rats; format: in vivo, rat
[2] = tested on: rats with induced neuropathic pain; assay: Chronic constriction injury (CCI) neuropathic pain model, von Frey test, central (subarachnoid) administration; format: in vivo, rat
Procedure: In the next step of the study, the peptide was administered by the central (subarachnoid) route to rats with induced neuropathic pain (the model of neuropathic pain of loose ligation of the sciatic nerve according to Bennett [Bennett and Xie, 1988]) according to the method described by Yaksh & Rudy (Yaksh T. R., Rudy T. A., Physiol Behav. 17:1031-1036 (1976). In the first step, the level of pain experienced by rats with chronic pain was determined in comparison to healthy rats. The results of the test are shown in FIG. 5. The behavioral test consisted of measuring the level of allodynia on the pelvic, “sick” limb, where the time or strength of the irritating stimulus acting on the bottom of the foot were tested.
In the main test of the analgesic effect of the tested peptide, a single dose of the peptide was administered by the central route at predetermined time intervals. To that end, the compound was dissolved in physiological saline solution and administered by a Hamilton syringe to the rats on days 0, 4, 7, 14 of the experiment. Earlier studies let to establish that in our case, the effective dose of peptide for rats is 2.0 nmol/kg.
In the treatment of chronic pain, pharmacotherapy is based on repeated administration of the active substance, which is often associated with the occurrence of the tolerance and undesired side effects. Therefore, in the next step of the study, the analgesic compound was administered to the rats daily for a period of 14 days, FIG. 7.

[3] = daily i.t. administration for 14 days

C[C@@H](NC(=O)[C@@H](N)Cc1ccc(O)cc1)C(=O)NCC(=O)N[C@@H](Cc1ccccc1)C(=O)NNC(=O)[C@H](Cc1ccccc1)NC(=O)CNC(=O)[C@@H](C)NC(=O)[C@@H](N)Cc1ccc(O)cc1 [biphalin]
effect after intravenous administration relative to morphine (rats; animals, intravenous): corresponds to doses of morphine
activity relative to morphine after administration into the subarachnoid space (rats; rats, intrathecal): more than one thousand times more active than morphine

C[C@@H](NC(=O)[C@@H](N)Cc1ccc(O)cc1)C(=O)N[C@@H](Cc1ccccc1)C(=O)NCC(=O)N[C@@H](Cc1ccc(O)cc1)C(=O)N1CCC[C@H]1C(=O)N[C@@H](CO)C(N)=O [dermorphin, Dermorphin]
potency relative to morphine (mu opioid receptor (MOR)): 750-2200 times
known stability in human or rat serum [1]: 170 to 190 min

CN1CC[C@]23c4c5ccc(O)c4O[C@H]2[C@@H](O)C=C[C@H]3[C@H]1C5 [morphine, reference compound]
equipotent dose relative to that of the peptide according to the invention (acute pain model in rats; i.t.): approximately 100 times
dose producing an effect similar to the peptide according to the invention (acute pain model in rats; i.t., equipotent dose): 32.0 nmol/kg

C[C@@H](NC(=O)[C@H](CO)NC(=O)[C@@H]1CCCN1C(=O)[C@H](Cc1ccc(O)cc1)NC(=O)CNC(=O)[C@H](Cc1ccccc1)NC(=O)[C@@H](C)NC(=O)[C@@H](N)Cc1ccc(O)cc1)C(=O)N[C@@H](Cc1ccccc1)C(=O)O [peptide according to the invention, H2N-Tyr-D-Ala-Gly-Phe-Gly-Tyr-Pro-Ser-D-Ala-Phe-OH]
analgesic effect at the threshold dose (acute pain model in rats; i.t., 0.004 nmol/kg): active at a low but noticeable level
duration of analgesic effect (acute pain model in rats; i.t., 0.04 nmol/kg): 30 min
duration of analgesic effect (acute pain model in rats; i.t., 0.08 nmol/kg): 60 min
activity in 60 and 120 min (acute pain model in rats; i.t., 0.08 nmol/kg and 0.4 nmol/kg, 60 and 120 min): 60-70 % MPE
analgesic potency compared to morphine (acute pain model in rats; i.t., FIGS. 1-3): definitely more potent than morphine
duration of maximum effects (acute pain model in rats; i.t., highest doses 0.08 nmol/kg and 0.4 nmol/kg): up to 30 min
analgesic effect compared to dermorphin at the lower dose (acute pain model in rats; subarachnoid, 0.04 nmol/kg, first 30 minutes): slightly higher in the first 30 minutes than for dermorphin
analgesic effect compared to dermorphin at the higher dose (acute pain model in rats; subarachnoid, 0.4 nmol/kg, first 30 minutes): equipotent for the first 30 minutes
analgesic potency compared to dermorphin (acute pain model in rats; subarachnoid, equivalent doses 0.04 and 0.4 nmol/kg): as potent as dermorphin
value of MPE maintained for 120 minutes after administration (acute pain model in rats; subarachnoid, higher dose 0.4 nmol/kg, 120 min): 40%
development of tolerance [2, 3]: did not develop tolerance
general condition / undesired side effects (weight loss, hyperalgesia to touch, vocalization, hair shedding) [2, 3]: in good general physical condition
hyperalgesia after long-term administration [2, 3]: did not induce hyperalgesia
analgesic effect, daily administration, fourteenth day ([2]; daily i.t. administration, day 14, versus control group): did not induce its analgesic effect
analgesic effect, daily administration, days 4 and 7 ([2]; daily i.t. administration, days 4 and 7, versus untreated group): highly analgesic
effective dose of peptide for rats ([2]; rats, CCI model, central route): 2.0 nmol/kg
analgesic effect, single dose ([2]; single dose i.t. on days 0, 4, 7, 14, result on days 4, 7 and 14 of pain induction, 2.0 nmol/kg): highly analgesic

Reference: US20250002533A1, “PEPTIDE AND ITS USES” (INSTYTUT MEDYCYNY DOSW[…] […].MIROSLAWA MOSS[…] AKADEMII …, priority 2021, published 2025)
